Laboratory results: patent publication US11541081B2, “Methods and compositions for changing the composition of the skin microbiome using complex mixtures of bacterial strains” (priority 2016, dated 2023)

How the values were obtained:
[1] = MBC test, 24 h exposure to benzoic acid, then 4 days on RCM agar; conditions: all P. acnes strains tested
acne patients = experiment: Pilot clinical study: safety evaluation; format: in vivo, human; conditions: BPO once a day, Day 1-Day 7, 14 subjects
Procedure: (§1) The pilot study was performed for 6 weeks with 14 subjects between 18-23 years. The primary endpoints were safety and efficacy trends. Two different bacterial formulations: A2 (a 2-strain mixture comprising strains C3 and K8 of P. acnes) and B4 (a 4-strain mixture comprising strains C3, K8, A5, and F4 of P. acnes) were tested.
(§2) Subjects were randomly distributed into two arms with different bacterial formulations administered to the subjects in each arm. Bacterial formulations were double-blinded: Arm 1: n=8 subjects received formulation A2. Arm 2: n=6 subjects received formulation B4. Subjects were evaluated on Day 1, Day 7, Day 21, and Day 42. In the first week, between Day 1 and Day 7, all subjects received Benzoyl peroxide (BPO) treatment (applied once a day). In the following 5 weeks, between Day 7 and Day 42, all subjects received bacterial formulation (gel applied 2× per day). FIG. 8A depicts the design of the pilot study.
The safety of the administered formulations was evaluated, for example, by visual evaluation of the redness, irritation or any other skin problems during each visit. No safety issues were observed during the study. Seven subjects reported dry or red skin during the use of BPO (Day 1-Day 7). […] No adverse effects were observed associated with the administration of live bacteria.

skin microbiome = experiment: Pilot clinical study: bacterial species composition of skin microbiome (16S); format: in vivo, human; conditions: after BPO application (Day 7)
Procedure: as §1, §2
The composition of bacterial species (16S) in the microbiome samples were analyzed on each visit. […]
When relating the bacterial species (16S) data with the strain level data (SLST) of P. acnes, it was observed that on Day 1 (ground state) the relative abundance of P. acnes was lower in acceptors (34%) compared to non-acceptors (41%). […] Relative abundances were determined using classical 16S amplicon sequencing. […]

P. acnes strains = experiment: Inhibition of P. acnes strains by salicylic acid; format: cell-based
P. acnes = conditions: Allgaier et al., 1985; cited from earlier work

Molecule: O=C(O)c1ccccc1 [Benzoic acid]
- concentration of benzoic acid affecting the growth of all strains (MBC test) [1]: greater than 0.31 % vol/vol

Molecule: O=C(OOC(=O)c1ccccc1)c1ccccc1 [BPO, Benzoyl peroxide]
- subjects reporting dry or red skin (acne patients): Seven
- change of total P. acnes population (skin microbiome): decrease

Molecule: O=C(O)c1ccccc1O [salicylic acid]
- inhibition of P. acnes strains (P. acnes strains): not inhibited

Molecule: Epidermin
- activity against P. acnes (P. acnes): highly active
